From PMC10648349, “Aromatic Diboronic Acids as Effective KPC/AmpC Inhibitors” (Molecules, 2023)
≈ marks a conversion by molar mass, not a printed value.

How the values were obtained:
C. krusei ATCC 6258 = assay: antifungal activity (disc-diffusion, MIC, MFC); type: cell-based, Candida krusei; settings: Pichia kudriavzevii, ATCC6258; for zone of inhibition at 0.4 mg/disc: 0.4 mg per disc, 9 mm disc (fluconazole 0.025 mg, 6 mm disc), - no zone, read-out: Diameter of inhibition zone; for MIC: fluconazole by Etest
Summary of the method: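 First, discs bearing 0.4 mg of compound in DMSO were tested for growth inhibition. Next, MIC was determined, followed by MBC for bacteria or MFC for yeasts, all per EUCAST and CLSI.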

E. coli 77 CMY-2(+) [1] = assay: screening test of direct antimicrobial activity (STDA), disc-diffusion; type: cell-based; settings: Escherichia coli, - no zone, read-out: Diameter of inhibition zone around disc with tested agent; for zone of inhibition at 300 µg/disc: 0.3 mg per disc
Method: (§1) Prior to combination disc tests, screening tests of direct antimicrobial activity (STDA) of the tested agent against β-lactamase-producing strains were performed by the disc-diffusion method. Discs with 0.3 mg, 0.1 mg, and 0.03 mg of each agent were examined. The highest amount of an agent that caused no effect on bacterial growth was used in further experiments.

[2] = test system: K. pneumoniae ATCC 700603 ESBL(+); assay: as above; type: cell-based; settings: Klebsiella pneumoniae, ATCC700603; 0.3 mg per disc; - no zone; read-out: Diameter of inhibition zone around disc with tested agent
Method: as §1

[3] = test system: K. pneumoniae ATCC BAA 1705 KPC(+); assay: as above; type: cell-based; settings: Klebsiella pneumoniae, BAA1705; 0.3 mg per disc; - no zone; read-out: Diameter of inhibition zone around disc with tested agent
Method: as §1

[4] = test system: P. aeruginosa MUW 700 AmpC(+); assay: as above; type: cell-based; settings: Pseudomonas aeruginosa; 0.3 mg per disc; - no zone; read-out: Diameter of inhibition zone around disc with tested agent
Method: as §1

E. coli 76 KPC-2(+) = assay: MIC of tested agent alone, microdilution; type: cell-based; settings: Escherichia coli; read-out: MIC of agent alone
Summary of the method: (§2)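 Broth microdilution checkerboard: β-lactam in seven two-fold dilutions (1–64 mg/L) against tested agent or PBA in three two-fold dilutions (4–16 mg/L). Antibiotic MICs were read at each agent level, with agent-alone MICs run in parallel by microdilution.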

E. coli 77 CMY-2(+) [5] = assay: MIC of tested agent alone, microdilution; type: cell-based; settings: Escherichia coli; read-out: MIC of agent alone
Summary of the method: as §2

[6] = test system: K. pneumoniae 81 KPC-3(+); assay: MIC of tested agent alone, microdilution; type: cell-based; settings: Klebsiella pneumoniae; read-out: MIC of agent alone
Summary of the method: as §2

[7] = test system: K. pneumoniae 83 KPC-3(+), CTX-M-3(+); assay: MIC of tested agent alone, microdilution; type: cell-based; settings: Klebsiella pneumoniae; read-out: MIC of agent alone
Summary of the method: as §2

[8] = test system: K. pneumoniae ATCC BAA-1705 KPC-2(+); assay: MIC of tested agent alone, microdilution; type: cell-based; settings: Klebsiella pneumoniae, ATCCBAA1705; read-out: MIC of agent alone
Summary of the method: as §2

[9] = test system: P. aeruginosa MUW 700 AmpC(+); assay: MIC of tested agent alone, microdilution; type: cell-based; settings: Pseudomonas aeruginosa; read-out: MIC of agent alone
Summary of the method: as §2

[10] = test system: P. aeruginosa MUW 700 cAmpC-positive; assay: checkerboard microdilution, antibiotic plus tested agent; type: cell-based, Pseudomonas aeruginosa
Summary of the method: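 β-lactam 1–64 mg/L × agent/PBA 4–16 mg/L checkerboard; meropenem vs carbapenemase producers, ceftazidime vs AmpC producer; imipenem, ertapenem added for selected agents. Readout: combination MICs, FICI (average and lowest); off-scale MICs taken as next doubling.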

Row | SMILES | zone of inhibition at 0.4 mg/disc (C. krusei ATCC 6258) | MIC (C. krusei ATCC 6258) | zone of inhibition at 300 µg/disc (E. coli 77 CMY-2(+) [1]) | zone of inhibition at 300 µg/disc [2] | zone of inhibition at 300 µg/disc [3] | zone of inhibition at 300 µg/disc [4] | MIC (E. coli 76 KPC-2(+)) | MIC (E. coli 77 CMY-2(+) [5]) | MIC [6] | MIC [7] | MIC [8] | MIC [9] | Average FICI with ceftazidime [10] | Interpretation of the average FICI with ceftazidime [10] | Interpretation of the lowest FICI with ceftazidime [10] | The lowest FICI with ceftazidime [10] | zone of inhibition at 100 µg/disc (E. coli 77 CMY-2(+) [1]; 0.1 mg per disc)
1 | OB(O)c1cc(F)c(B(O)O)c(F)c1F [1f] | 19 mm | 100 µg/mL (≈ 455 µM) | 15 mm | 18 mm | 16 mm | 12 mm | 100 µg/mL | 100 µg/mL | 100 µg/mL | 100 µg/mL | 100 µg/mL | > 400 µg/mL | 0.43 | S (FICI ≤ 0.5, synergy) | S (FICI ≤ 0.5, synergy) | 0.27 | 
2 | OB(O)c1cc(B(O)O)c(F)cc1F [2c] |  | > 400 µg/mL | 15 mm | 13 mm | 14 mm | 11 mm | 200 µg/mL | 200 µg/mL | 200 µg/mL | 200 µg/mL | 400 µg/mL | > 400 µg/mL | 0.22 | S (FICI ≤ 0.5, synergy) | S (FICI ≤ 0.5, synergy) | 0.15 | 
3 | O=Cc1cc(F)ccc1B(O)O [7b] | 28 mm | 25 µg/mL (≈ 149 µM) | 14 mm | 13 mm | 14 mm |  |  |  |  |  |  |  |  |  |  |  | 12 mm
4 | OB(O)c1ccc(B(O)O)c(F)c1F [1c] |  | 400 µg/mL (≈ 1980 µM) | 17 mm | 14 mm | 12 mm | 13 mm | 200 µg/mL | 200 µg/mL | 200 µg/mL | 200 µg/mL | 200 µg/mL | 400 µg/mL | 0.32 | S (FICI ≤ 0.5, synergy) | S (FICI ≤ 0.5, synergy) | 0.17 | 
